From patent publication US8538706B2, “Method for affinity scoring of peptide/protein complexes” (Lonza Biologics PLC, priority 2004, dated 2013)

Key:
HLA-A*0101 (A1) = HLA-A*0101 (A1) (Homo sapiens, UniProt P04439, A114D/A174V/A182V/D101N/D185E/E176A/E190D/L180R/Q94H/R68K/S129P/T187R/V100A/V91M/W191G); details: cited from earlier work
HLA-A*2402 = HLA-A*2402 (Homo sapiens, UniProt P04439, D101N/D140Y/D185E/E176V/E190D/F33S/G103R/G107R/I119L/I121M/I306V/K335N/L105A/L180Q/L300P/N151K/N90K/Q86E/Q94H/R106L/R138H/R89G/T104I/T345S/V100E/W191G/Y123F); test: independent binding assay of fluorescent reference peptide (Kdref), A24; details: single-site curve fitting, approximate
Method: 50% inhibitory concentrations (IC50-values) were calculated as averages obtained from at least 3 independent measurements, i.e. from different cell preparations and peptide dilutions. Test peptides >95% pure (Thermo Electron GmbH) were stored at 10 mM in DMSO at −20° C. Cysteine-containing peptides were stored at 10 mM in 1 mM DTT DMSO. […] IC50-values were converted to binding free energies (AG) using the relationships Kd=IC50Kdref/cref (7) and AG=RT ln(Kd) (8) where Kdref and cref are the dissociation constant and formal concentration of the reference peptide, respectively. The Kdref values were derived from an independent binding assay in which the fluorescence intensity was measured as a function of increasing concentrations of reference peptide.

Substance: IYQYMDDLY
- binding to A1 in words (HLA-A*0101 (A1); Tyr at P2): medium-affinity binder

Substance: RYLKC(5Fluorescein)QQLL
- Kd (HLA-A*2402): ~30 nM

Substance: YSDSVYGDT
- Kd (HLA-A*0101 (A1); strongest A1-binding peptide from HPV-18): 188 nM
